In patent publication US20240225971A1 (Genomatica, Inc., priority 2021, published 2024):
≈ marks a conversion by molar mass, not a printed value. Each block holds one molecule with its values, some of them ahead of it.

Assays:
physchem = experiment: physchem
Excerpt: The term “fragrance composition” or “composition,” as used herein, represents a composition containing one or more fragrance ingredients described here and formulated with a physiologically acceptable diluent or solvent, used interchangeably here. In a fragrance composition, or composition that has a fragrance, such as a perfume, 20%-40% of the observable liquid may be comprised of a diluent, i.e., the delivery system for scents of the fragrance ingredients. The “log P” value, as used here, indicates whether a substance or fragrance ingredient will be absorbed by humans, animals, plants, or living tissue; diffused or disseminated by water.
(§1) Also included is the molecular weight of each of the fragrance ingredients. Not determinable (ND).

[1] = Water solubility at 25° C. of fragrance ingredients; conditions: 25° C.
Excerpt: as §1

[2] = Vapor pressure of fragrance ingredients
Excerpt: as §1

[3] = Flash point of fragrance ingredients; type: physicochemical
Excerpt: as §1

[4] = Clarity of fragrance ingredient in bioderived 1,3-BG by visual observation; conditions: 10% ingredient in bioderived 1,3-BG; clear, slightly haze, cloudy, particles, or separation
Description: (§2) Clarity for each of the fragrance ingredients (10% in bioderived 1,3-BG) was determined by visual observations after compounding and blending the fragrance ingredient with bioderived 1,3-BG and identified as clear, slightly haze, cloudy, particles, or separation.
(§3) Clarity for each of the fragrance ingredients (at 1% in bioderived 1,3-BG) was determined by visual observations after compounding and blending the fragrance ingredient with bioderived 1,3-BG and identified as clear, slightly haze, cloudy, particles, or separation.

[5] = Solubility of fragrance ingredients in bioderived 1,3-BG (visual inspection); conditions: 10% ingredient in bioderived 1,3-BG; excellent, good, moderate, poor, or none
Description: as §2, §3

microorganisms = experiment: Minimum Inhibitory Concentration (MIC) testing; type: cell-based
[6] = Repeated Insult Patch Test; type: in vivo, human
Description: Prior to the initiation of the study, each jar containing the test material received a N2 blanket conducted by the Analytical Department at Consumer Product Testing Company.
The upper back between the scapulae served as the treatment area. Approximately 0.2 ml of the test material, or an amount sufficient to cover the contact surface, was applied to the 1″×1″ absorbent pad portion of a clear adhesive dressing. This was then applied to the appropriate treatment site to form a semi-occlusive patch.
Erythema was scored numerically according to the key in TABLE 16. If present, additional Dermal Sequelae were indicated by the appropriate letter code and a numerical value for severity was assigned.
Patches were applied three (3) times per week (e.g., Monday, Wednesday, and Friday) for a total of nine (9) applications. The site was marked to ensure the continuity of patch application. Following supervised removal and scoring of the first Induction patch, participants were instructed to remove all subsequent Induction patches at home, twenty-four hours after application. The evaluation of this site was made again just prior to re-application. If a participant was unable to report for an assigned test day, one (1) makeup day was permitted. This day was added to the Induction period.
Applications were discontinued for the remainder of this test phase, if a moderate (2-level) reaction was observed on this new test site. Applications would also be discontinued if marked (3-level) or severe (4-level) reactivity was noted.
Rest periods consisted of one day following each Tuesday and Thursday removal, and two days following each Saturday removal.
Approximately two (2) weeks after the final Induction patch application, a Challenge patch was applied to a virgin test site adjacent to the original Induction patch site, following the same procedure described for the Induction Phase. The Challenge patch was removed and the site scored at the clinic on Day 1 and Day 3 post-application.

[7] = Technical quality analysis (viscosity, precipitation, color, visual clarity, skin testing)
Description: Color changes were noted if there were any color variation resulting from the addition of fragrance ingredient in diluent. For select fragrance ingredients, skin testing was performed. Specifically, in the first round of testing, skin odor evaluation was performed on an interim basis for selective ingredients.

Structure (SMILES): CCCc1ccc(O)c(OC)c1 [Dihydro Eugenol]
logP (physchem): 2.39 | Water Solubility [1]: 228.000 µg/mL | Vapor Pressure [2]: 0.006 mm hg | Flash Point [3]: 100 °C | Clarity 10% [4]: Clear | Solubility 10% [5]: Good

logP (physchem): 2.653 | Water Solubility [1]: 91.720 µg/mL | Vapor Pressure [2]: 0.001 mm hg | Flash Point [3]: 148 °C | Clarity 10% [4]: Clear | Solubility 10% [5]: Good
Structure (SMILES): CCCCCC1C(=O)CCC1CC(=O)OC (centres unmarked) [Hedione]

Structure (SMILES): CC(O)CCO (centres unmarked) [bioBG, 1,3-butylene glycol]
MIC (microorganisms; Escherichia coli, E. coli, concentration completely inhibiting microbial growth): 100 mg/mL (≈ 1110 mM) | inhibition of microbial growth in MIC tests (microorganisms; compared to 1,3-PG and glycerin): increased ability to inhibit microbial growth compared to 1,3-Propylene Glycol (1,3-PG) and glycerin | adverse events ([6]; 40% dilution in water): no adverse events | Virgin Challenge Site Day 1* skin reaction score ([6]; bioBG diluted to 40%, human subjects, Challenge patch, Day 1 post-application, supervised removal, one line per subject): 0 | Virgin Challenge Site Day 3 skin reaction score ([6]; bioBG diluted to 40%, human subjects, Challenge patch, Day 3 post-application, one line per subject): 0 | Induction Phase 2 skin reaction score ([6]; bioBG diluted to 40%, human subjects, Induction reading 2, one line per subject): 0 | Induction Phase 3 skin reaction score ([6]; bioBG diluted to 40%, human subjects, Induction reading 3, one line per subject): 0 | Induction Phase 4 skin reaction score ([6]; bioBG diluted to 40%, human subjects, Induction reading 4, one line per subject): 0 | Induction Phase 5 skin reaction score ([6]; bioBG diluted to 40%, human subjects, Induction reading 5, one line per subject): 0 | Induction Phase 6 skin reaction score ([6]; bioBG diluted to 40%, human subjects, Induction reading 6, one line per subject): 0 | Induction Phase 7 skin reaction score ([6]; bioBG diluted to 40%, human subjects, Induction reading 7, one line per subject): 0 | Induction Phase 8 skin reaction score ([6]; bioBG diluted to 40%, human subjects, Induction reading 8, one line per subject): 0 | Induction Phase 9 skin reaction score ([6]; bioBG diluted to 40%, human subjects, Induction reading 9, one line per subject): 0 | Induction Phase Day 1* skin reaction score ([6]; bioBG diluted to 40%, human subjects, first Induction patch, supervised removal, one line per subject): 0 | skin properties when applied to skin ([6]; up to a concentration of 40%): non-irritating, non-sensitizing, and/or non-allergenic | visual clarity compared to DPG, BB, IPM [7]: exceptional visual clarity with a crystal clear appearance | viscosity ([7]; observed with the different fragrance ingredients): very consistent
